This is an account of results in article PMC8431557, “Multilevel Approach for the Treatment of Giardiasis by Targeting Arginine Deiminase” (International Journal of Molecular Sciences, 2021).

Test [1] has as its target T1, GlADI (giardial arginine deiminase) (Giardia duodenalis, UniProt E2RU36). In words: residual activity after […] h preincubation, GlDH-coupled NADH assay. It is filed as biochemical. Also noted: gene GL50803_00112103; recombinant in pET28a(+), E. coli Rosetta 2 (DE3) pLysS; N-terminal His6 tag not cleaved; 580 residues; homodimer; 16 Cys per monomer. To be noted: covalent (Cys modification); 2 h, pH 8.0, 25 °C.

Test [2] addresses T1, GlADI (giardial arginine deiminase). In words: residual activity after timed preincubation, GlDH-coupled NADH assay; slope of k1 vs concentration. Particulars: covalent (Cys modification), second-order inactivation rate constant, pH 8.0, 25 °C. It is filed as biochemical. Details: gene GL50803_00112103; recombinant in pET28a(+), E. coli Rosetta 2 (DE3) pLysS; N-terminal His6 tag not cleaved; 580 residues; homodimer; 16 Cys per monomer.

The target is the same in test [3]. Details: gene GL50803_00112103. To be noted: 8 mM L-arginine, pH 8.0, 25 °C.

T1 sequence (E2RU36 entry or part of it): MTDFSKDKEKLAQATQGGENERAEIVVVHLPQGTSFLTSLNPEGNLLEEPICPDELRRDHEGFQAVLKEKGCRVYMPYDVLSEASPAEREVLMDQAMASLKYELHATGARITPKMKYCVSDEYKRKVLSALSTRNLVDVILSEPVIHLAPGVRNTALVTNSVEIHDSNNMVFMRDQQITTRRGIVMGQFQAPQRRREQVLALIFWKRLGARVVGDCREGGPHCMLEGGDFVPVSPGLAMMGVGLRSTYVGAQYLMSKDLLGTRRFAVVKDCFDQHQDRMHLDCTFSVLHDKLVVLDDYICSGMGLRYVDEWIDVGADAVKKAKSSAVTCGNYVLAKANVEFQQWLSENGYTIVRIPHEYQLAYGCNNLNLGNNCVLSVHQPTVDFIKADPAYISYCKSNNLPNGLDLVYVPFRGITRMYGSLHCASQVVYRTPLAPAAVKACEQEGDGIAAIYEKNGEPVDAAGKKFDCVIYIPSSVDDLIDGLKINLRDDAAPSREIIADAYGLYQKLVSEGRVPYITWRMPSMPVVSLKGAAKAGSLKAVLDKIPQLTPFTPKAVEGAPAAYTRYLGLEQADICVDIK

As to `COc1ccc2[nH]c([S+]([O-])Cc3ncc(C)c(OC)c3C)nc2c1` (stereo not drawn) [omeprazole], the “residual activity (%)” value in test [1] is given as “all of these drugs were able to inhibit recombinant GlADI in vitro in a dose-dependent manner”.
As to `CC(=C(CCOC(=O)C(C)C)SSC(CCOC(=O)C(C)C)=C(C)N(C=O)Cc1cnc(C)nc1N)N(C=O)Cc1cnc(C)nc1N` (stereo in doubt) [sulbutiamine], the “residual activity (%)” value in test [1] is “all of these drugs were able to inhibit recombinant GlADI in vitro in a dose-dependent manner”.
In the case of `CSS(C)(=O)=O` [MMTS, s-methyl methanethiosulfonate], the k2 in test [2] (2.5-85 µM) stood at 15.68 ± 0.9 M⁻¹ s⁻¹.
Turning to `N=C(N)NCCC[C@H](N)C(=O)O` [L-arginine], the “GlDH-coupled NADH oxidation at 340 nm” value in test [3] is “monitoring the conversion of L-arginine to citrulline”.
Take `O=C(O)c1cc(SSc2ccc([N+](=O)[O-])c(C(=O)O)c2)ccc1[N+](=O)[O-]` [DTNB, dithio-bis-nitrobenzoic acid]: in test [1], the “residual activity (%)” value is “caused inactivation of the enzyme in a dose-dependent manner (Figure 1E,F)”.
As to `COCCCOc1ccnc(C[S+]([O-])c2nc3ccccc3[nH]2)c1C` (stereo not drawn) [rabeprazole], the k2 in test [2] (5-110 µM) turned out to be 6.72 ± 0.2 M⁻¹ s⁻¹.
